{"source": "patent US20060094880A9", "about": "“Synthetic process for trans-aminocyclohexyl ether compounds” (priority 2003, published 2006)", "tested_on": "sustained AF maintained during continuous vagal nerve stimulation", "assay": "Canine vagal-AF model: termination of sustained AF during continuous vagal nerve stimulation", "assay_type": "in vivo, Mongrel dogs", "description": "St.-Georges et al., 1997). Dogs are ventilated mechanically with room air supplemented with oxygen via an endotracheal tube at 20 to 25 breaths/minute with a tidal volume obtained from a nomogram. […] Catheters are inserted into the femoral artery for blood pressure recording and blood gas measurement, and into both femoral veins for drug administration and venous sampling. […] Body temperature is maintained at 37-40° C. with a heating blanket. The heart is exposed via a medial thoracotomy and a pericardial cradle is created. […] Drug effects to terminate sustained AF maintained during continuous vagal nerve stimulation are assessed. […] The vagal stimulation voltage is adjusted under control conditions, and then readjusted after each treatment to maintain the same bradycardic effect. […] Diastolic threshold and ERP are determined in duplicate and averaged to give a single value. […] The interval from the stimulus artefact and the peak of the local electrogram is measured as an index of conduction velocity. […] The stimulus voltage-heart rate relationship for vagal nerve stimulation is determined under control conditions in most experiments. […] After the termination of AF, the diastolic threshold and ERP of the atrium and ventricle are determined. […] Group data are expressed as the mean ±SEM. […]"}
{"smiles": "O=C(NCC1CCCCN1)c1cc(OCC(F)(F)F)ccc1OCC(F)(F)F", "note": "(stereo not shown) [Flecainide]", "values": [{"measurement": "Effectiveness as a control in the present study", "value": "comparable to that previously reported"}]}
